# Experimental data reported in the supplement of paper PMC10307832.
# Key:
# Assay in all cases: relative viability (nuclei count vs DMSO), 5 days (fraction); higher = more cells survive
# [1] = test system: NCI-H2023
# How it was run: (§1)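 Lung cancer cell lines in 1536-well plates got either a single drug or a fixed anchor-drug dose together with five library-drug doses (not always all listed) in √10 steps, by pin tool, on the day after seeding. Nuclei were counted after 5 days, and relative viability is the treated-to-vehicle ratio of nuclei counts. Values are medians of duplicate plates.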
# [2] = test system: NCI-H2085
# How it was run: as §1
# [3] = test system: CAL-12T
# How it was run: as §1
# [4] = test system: NCI-H1975
# How it was run: as §1
# [5] = test system: NCI-H1651
# How it was run: as §1
# [6] = test system: NCI-H1355
# How it was run: as §1
# [7] = test system: NCI-H1734
# How it was run: as §1
# [8] = test system: NCI-H460
# How it was run: as §1
# [9] = test system: NCI-H1650
# How it was run: as §1
# [10] = test system: LU99A
# How it was run: as §1
# [11] = test system: NCI-H1437
# How it was run: as §1
compound,measurement,setting,value
COc1cc2nccc(Oc3ccc(NC(=O)Nc4cc(C)on4)c(Cl)c3)c2cc1OC [Tivozanib] + CC(=O)Nc1cccc(-n2c(=O)n(C3CC3)c(=O)c3c(Nc4ccc(I)cc4F)n(C)c(=O)c(C)c32)c1 [Trametinib] (partner 0.02 µM),relative viability,[1]; first compound 0.1581 µM,0.61
same,relative viability,[1]; first compound 0.5 µM,0.498
same,relative viability,[2]; first compound 0.005 µM,0.51
same,relative viability,[2]; first compound 0.01581 µM,0.602
same,relative viability,[2]; first compound 0.05 µM,0.543
same,relative viability,[2]; first compound 0.1581 µM,0.437
same,relative viability,[2]; first compound 0.5 µM,0.511
same,relative viability,[3]; first compound 0.005 µM,0.297
same,relative viability,[3]; first compound 0.01581 µM,0.356
same,relative viability,[3]; first compound 0.05 µM,0.414
same,relative viability,[3]; first compound 0.1581 µM,0.235
same,relative viability,[3]; first compound 0.5 µM,0.408
same,relative viability,[4]; first compound 0.005 µM,0.296
same,relative viability,[4]; first compound 0.01581 µM,0.39
same,relative viability,[4]; first compound 0.05 µM,0.442
same,relative viability,[4]; first compound 0.1581 µM,0.256
same,relative viability,[4]; first compound 0.5 µM,0.312
same,relative viability,[5]; first compound 0.005 µM,0.816
same,relative viability,[5]; first compound 0.01581 µM,0.808
same,relative viability,[5]; first compound 0.05 µM,0.821
same,relative viability,[5]; first compound 0.1581 µM,0.866
same,relative viability,[5]; first compound 0.5 µM,0.828
same,relative viability,[6]; first compound 0.005 µM,0.413
same,relative viability,[6]; first compound 0.01581 µM,0.432
same,relative viability,[6]; first compound 0.05 µM,0.455
same,relative viability,[6]; first compound 0.1581 µM,0.33
same,relative viability,[6]; first compound 0.5 µM,0.408
same,relative viability,[7]; first compound 0.005 µM,0.645
same,relative viability,[7]; first compound 0.01581 µM,0.642
same,relative viability,[7]; first compound 0.05 µM,0.666
same,relative viability,[7]; first compound 0.1581 µM,0.479
same,relative viability,[7]; first compound 0.5 µM,0.638
same,relative viability,[8]; first compound 0.005 µM,0.13
same,relative viability,[8]; first compound 0.01581 µM,0.192
same,relative viability,[8]; first compound 0.05 µM,0.254
same,relative viability,[8]; first compound 0.1581 µM,0.13
same,relative viability,[8]; first compound 0.5 µM,0.236
same,relative viability,[9]; first compound 0.005 µM,0.592
same,relative viability,[9]; first compound 0.01581 µM,0.582
same,relative viability,[9]; first compound 0.05 µM,0.584
same,relative viability,[9]; first compound 0.1581 µM,0.545
same,relative viability,[9]; first compound 0.5 µM,0.547
same,relative viability,[10]; first compound 0.005 µM,0.626
same,relative viability,[10]; first compound 0.01581 µM,0.496
same,relative viability,[10]; first compound 0.05 µM,0.61
same,relative viability,[10]; first compound 0.1581 µM,0.396
same,relative viability,[10]; first compound 0.5 µM,0.563
same,relative viability,[11]; first compound 0.005 µM,0.567
same,relative viability,[11]; first compound 0.01581 µM,0.535
same,relative viability,[11]; first compound 0.05 µM,0.592
same,relative viability,[11]; first compound 0.1581 µM,0.49
same,relative viability,[11]; first compound 0.5 µM,0.522
